According to patent publication US7332476B2, “Pyridyl substituted ketolide antibiotics” (Novartis AG, priority 2003, dated 2008):
Values after ≈ are worked out from the molar mass of the structure shown.

Key:
Assay in all cases: MIC, broth microdilution (NCCLS)
[1] = test system: Enterococcus faecalis Enfa_29212; format: cell-based; conditions: Table 7, Strain ID D (Table 6): E. faecalis Enfa_29212
Description: (§1) Strains. The bacterial isolates listed in Table 4 were cultivated from −70° C. frozen stocks by two consecutive overnight passages (P1, P2) at 35° C. on 5% blood agar (Remel, Lenexa, Kans.). Chocolate agar (Remel) is used for Haemophilus influenzae. H. influenzae and Streptococcus pneumoniae are incubated in 5-10% CO2
(§2) Drug Stock Preparation. To determine the amount of solvent to be used to give the desired final concentration, the formula “weight obtained in mg/final concentration in mg/ml” will be used. It will give the amount of solvent in ml needed to be added to give the desired concentration. For example, if 2.5 mg/ml is the desired concentration and the weight of compound is 13.7 mg, then the amount of solvent to be added is […]. Methanol is used as the solvent to dissolve the test compounds. Further dilution of stock is done in sterile, deionized water. Drug stocks are kept frozen at −70° C., protected from light.
(§3) Susceptibility Testing. MICs are determined by the broth microdilution method in accordance with the NCCLS guidelines. In brief, organism suspensions are adjusted to a 0.5 McFarland standard to yield a final inoculum between 3×10^5 and 7×10^5 CFU/ml. Drug dilutions and inocula are made in sterile, cation adjusted Mueller-Hinton Broth (CAMHB) (Remel) for all but S. pneumoniae [CAMHB with 2-5% lysed horse blood (Remel)] and H. influenzae [Haemophilus Test Medium (Remel)]. An inoculum volume of 100 μl is added to wells containing 100 μl of broth with 2-fold serial dilutions of drug. All inoculated microdilution trays are incubated in ambient air at 35° C. for 18-24 hours, except for S. pneumoniae, and H. influenzae (both at 5-10% CO2).
(§4) Following appropriate incubation, the MIC is determined and the MIC is defined as the lowest concentration of the drug that prevented visible growth.
as §1, with “8” for “4”
(§5) Following appropriate incubation, the MIC is determined and the MIC is defined as the lowest concentration of the drug that prevented visible growth. […] Antibacterial activity of representative compounds of the invention were compared against telitromycin.

[2] = test system: Haemophilus influenzae Hain_49247; format: cell-based; conditions: Table 7, Strain ID M (Table 6): H. influenzae Hain_49247; unit assumed
Description: as §1, §2, §3, §4
as §1, with “8” for “4”
as §5

[3] = test system: Staphylococcus aureus Stau_29213; format: cell-based; conditions: Table 7, Strain ID A (Table 6): S. aureus Stau_29213; in µg/mL (unit assumed)
Description: as §1, §2, §3, §4
as §1, with “8” for “4”
as §5

[4] = test system: Staphylococcus epidermidis Step_14990; format: cell-based; conditions: Table 7, Strain ID B (Table 6): S. epidermidis Step_14990; in µg/mL (unit assumed)
Description: as §1, §2, §3, §4
as §1, with “8” for “4”
as §5

[5] = test system: Staphylococcus epidermidis Step_f50654; format: cell-based; conditions: Table 7, Strain ID C (Table 6): S. epidermidis Step_f50654; in µg/mL (unit assumed)
Description: as §1, §2, §3, §4
as §1, with “8” for “4”
as §5

[6] = test system: Streptococcus pneumoniae Stpn_Erm S 4297; format: cell-based; conditions: Table 7, Strain ID J (Table 6): S. pneumoniae Stpn_Erm S 4297
Description: as §1, §2, §3, §4
as §1, with “8” for “4”
as §5

[7] = test system: Streptococcus pneumoniae Stpn_Mef S 3427; format: cell-based; conditions: Table 7, Strain ID L (Table 6): S. pneumoniae Stpn_Mef S 3427
Description: as §1, §2, §3, §4
as §1, with “8” for “4”
as §5

[8] = test system: Streptococcus pyogenes Stpy_8668; format: cell-based; conditions: Table 7, Strain ID E (Table 6): S. pyogenes Stpy_8668
Procedure, shortened: (§6)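 NCCLS broth microdilution with 2-fold serial drug dilutions (methanol stocks diluted in water); inoculum 3×10^5–7×10^5 CFU/ml in CAMHB, with 2-5% lysed horse blood for S. pneumoniae. Incubation 18-24 h at 35° C., ambient air, except S. pneumoniae (5-10% CO2). MIC is lowest concentration preventing visible growth.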

[9] = test system: Streptococcus pneumoniae Stpn_49619; format: cell-based; conditions: Table 7, Strain ID F (Table 6): S. pneumoniae Stpn_49619
Procedure, shortened: as §6

[10] = test system: Streptococcus pneumoniae Stpn_297-749; format: cell-based; conditions: Table 7, Strain ID G (Table 6): S. pneumoniae Stpn_297-749
Procedure, shortened: as §6

[11] = test system: Streptococcus pneumoniae Stpn_280-962; format: cell-based; conditions: Table 7, Strain ID H (Table 6): S. pneumoniae Stpn_280-962
Procedure, shortened: as §6

[12] = test system: S. pneumoniae Stpn_Erm 6849; format: cell-based, Streptococcus pneumoniae; conditions: Table 7, Strain ID I (Table 6): S. pneumoniae Stpn_Erm 6849; unit assumed
Description: as §1, §2, §3, §4

[13] = test system: Streptococcus pneumoniae Stpn_Mef 5654; format: cell-based; conditions: Table 7, Strain ID K (Table 6): S. pneumoniae Stpn_Mef 5654; in µg/mL (unit assumed)
Description: as §1, §2, §3, §4
as §1, with “8” for “4”
as §5

SMILES	MIC ([1]; in µg/mL (unit assumed))	MIC [2]	MIC [3]	MIC [4]	MIC [5]	MIC [6]	MIC ([7]; in µg/mL (unit assumed))	MIC [8]	MIC [9]	MIC [10]	MIC [11]	MIC [12]	MIC [13]	MIC ([6]; unit assumed)	MIC [7]	MIC ([8]; unit assumed)	MIC ([9]; unit assumed)	MIC ([10]; unit assumed)	MIC ([11]; unit assumed)	MIC [1]
C=C[C@]12OC(=O)N(CCCCn3cnc(-c4cccnc4)c3)[C@@H]1[C@@H](C)C(=O)[C@H](C)C[C@](C)(OC)[C@H](OC1O[C@H](C)C[C@H](N(C)C)[C@H]1O)[C@@H](C)C(=O)[C@@H](C)C(=O)O[C@@H]2CC (stereo partly drawn) [Example 48, (3aS,4R,7R,9R,10R,11R,13R,15R,15aR)-4-ETHYL-11-METHOXY-7,9,11,13,15-PENTAMETHYL-2,6,8,14-TETRAOXO-1-[4-(4-PYRIDIN-3-YL-1H-IMIDAZOL-1-YL)BUTYL]-3a-VINYLTETRADECAHYDRO-1H-OXACYCLOTETRADECINO[4,3-D][1,3]OXAZOL-10-YL-3,4,6-TRIDEOXY-3-(DIMETHYLAMINO)-D-XYLO-HEXOPYRANOSIDE]	0.1	3.13 µg/mL (≈ 3.8 µM)	0.2	0.2	0.2	=0.05	0.1	=0.05	=0.05	=0.05	=0.05	0.4 µg/mL (≈ 0.485 µM)	0.78	–	–	–	–	–	–	–
CCC1OC(=O)C(C)C(=O)C(C)C(OC2OC(C)CC(N(C)C)C2O)C(C)(OC)CC(C)C(=O)C(C)C2C1OC(=O)N2OCCOc1ccccc1 (stereo not drawn) [Compound 20w]	0.2	50 µg/mL (≈ 68 µM)	3.13	1.56	3.13	–	0.1	=0.05	=0.05	=0.05	=0.05	12.5 µg/mL (≈ 17 µM)	0.4	3.13 µg/mL (≈ 4.26 µM)	–	–	–	–	–	–
C/C=C\[C@]12OC(=O)N(CCCCn3cnc(-c4cccnc4)c3)[C@@H]1[C@@H](C)C(=O)[C@H](C)C[C@](C)(OC)[C@H](OC1O[C@H](C)C[C@H](N(C)C)[C@H]1O)[C@@H](C)C(=O)[C@](C)(F)C(=O)O[C@@H]2CC (stereo partly drawn) [Example 66, (3aS,4R,7S,9R,10R,11S,13R,15R,15aR)-4-ethyl-7-fluoro-11-methoxy-7,9,11,13,15-pentamethyl-2,6,8,14-tetraoxo-3a-[(1Z)-prop-1-enyl]-1-[4-(4-pyridin-3-yl-1H-imidazol-1-yl)butyl]tetradecahydro-1H-oxacyclotetradecino[4,3-d][1,3]oxazol-10-yl-3,4,6-trideoxy-3-(dimethylamino)-D-xylo-hexopyranoside]	.01	6.25 µg/mL (≈ 7.3 µM)	0.2	0.2	0.2	–	0.1	=0.05	=0.05	=0.05	=0.05	0.2 µg/mL (≈ 0.234 µM)	0.4	0.1 µg/mL (≈ 0.117 µM)	–	–	–	–	–	–
CCC1OC(=O)C(C)C(=O)C(C)C(OC2OC(C)CC(N(C)C)C2O)C(C)(OC)CC(C)C(=O)C(C)C2C1OC(=O)N2CCCCc1ncc(-c2cccc(N)c2)s1 (stereo not drawn) [Compound 20v]	0.2	6.25 µg/mL (≈ 7.54 µM)	0.4	0.4	0.2	–	–	=0.05	=0.05	=0.05	=0.05	50 µg/mL (≈ 60.3 µM)	0.78	0.4 µg/mL (≈ 0.482 µM)	=0.05	–	–	–	–	–
CCC1OC(=O)C(C)C(=O)C(C)C(OC2OC(C)CC(N(C)C)C2O)C(C)(OC)CC(C)C(=O)C(C)C2C1OC(=O)N2CCCOc1ccc(-c2cccnc2)cc1 (stereo not drawn) [Compound 20r]	1.56	50 µg/mL (≈ 61.7 µM)	3.13	3.13	1.56	–	0.1	–	–	–	–	25 µg/mL (≈ 30.9 µM)	1.56	25 µg/mL (≈ 30.9 µM)	–	0.4 µg/mL (≈ 0.494 µM)	0.1 µg/mL (≈ 0.123 µM)	0.1 µg/mL (≈ 0.123 µM)	0.1 µg/mL (≈ 0.123 µM)	–
CCC1OC(=O)C(C)C(=O)C(C)C(OC2OC(C)CC(N(C)C)C2O)C(C)(OC)CC(C)C(=O)C(C)C2C1OC(=O)N2CCCCc1cc(C(F)(F)F)nc2ccccc12 (stereo not drawn) [Compound 20p]	0.2	6.25 µg/mL (≈ 7.35 µM)	0.4	0.2	0.4	–	0.2	–	–	=0.05	–	6.25 µg/mL (≈ 7.35 µM)	0.78	0.78 µg/mL (≈ 0.918 µM)	–	0.1 µg/mL (≈ 0.118 µM)	0.1 µg/mL (≈ 0.118 µM)	–	0.1 µg/mL (≈ 0.118 µM)	–
CCC1OC(=O)C(C)C(=O)C(C)C(OC2OC(C)CC(N(C)C)C2O)C(C)(OC)CC(C)C(=O)C(C)C2C1OC(=O)N2CCCCc1cnc2ccccc2c1 (stereo not drawn) [Compound 20n]	0.1	6.25 µg/mL (≈ 7.99 µM)	0.4	0.2	0.4	–	0.1	=0.05	=0.05	=0.05	=0.05	0.4 µg/mL (≈ 0.512 µM)	0.2	0.1 µg/mL (≈ 0.128 µM)	–	–	–	–	–	–
CCC1OC(=O)C(C)C(=O)C(C)C(OC2OC(C)CC(N(C)C)C2O)C(C)(OC)CC(C)C(=O)C(C)C2C1OC(=O)N2CCCCn1ccc2ncccc21 (stereo not drawn) [Compound 20m]	–	1.56 µg/mL (≈ 2.02 µM)	0.2	0.1	0.2	=0.05	–	=0.05	=0.05	=0.05	=0.05	0.2 µg/mL (≈ 0.259 µM)	0.2	–	=0.05	–	–	–	–	=0.05
CCC1OC(=O)C(C)C(=O)C(C)C(OC2OC(C)CC(N(C)C)C2O)C(C)(OC)CC(C)C(=O)C(C)C2C1OC(=O)N2CCCCc1cc(C)nc2ccccc12 (stereo not drawn) [Compound 20o]	0.1	3.13 µg/mL (≈ 3.93 µM)	0.2	0.2	0.2	–	0.1	=0.05	=0.05	=0.05	=0.05	1.56 µg/mL (≈ 1.96 µM)	0.2	0.1 µg/mL (≈ 0.126 µM)	–	–	–	–	–	–
